Ends that are not written are not given here.
Experiments:
[1] = molecular target: T1, A2AR homodimer (A2A-cYFP / A2A-nYFP) in HEK-293T cells (Homo sapiens, UniProt P29274); test: Bimolecular fluorescence complementation (BiFC) assay of A2A receptor homodimer disruption; assay type: cell-based; details: 4 h incubation with peptide; for Effect on the control BiFC fluorescence (A2AR dimerization): HEK-293T cells, A2A-cYFP / A2A-nYFP, versus fluorescence of the dimer in the absence of peptides
T1 construct: expressed in transfected cells; host or cells: HEK-293T
T1 sequence (P29274 whole entry): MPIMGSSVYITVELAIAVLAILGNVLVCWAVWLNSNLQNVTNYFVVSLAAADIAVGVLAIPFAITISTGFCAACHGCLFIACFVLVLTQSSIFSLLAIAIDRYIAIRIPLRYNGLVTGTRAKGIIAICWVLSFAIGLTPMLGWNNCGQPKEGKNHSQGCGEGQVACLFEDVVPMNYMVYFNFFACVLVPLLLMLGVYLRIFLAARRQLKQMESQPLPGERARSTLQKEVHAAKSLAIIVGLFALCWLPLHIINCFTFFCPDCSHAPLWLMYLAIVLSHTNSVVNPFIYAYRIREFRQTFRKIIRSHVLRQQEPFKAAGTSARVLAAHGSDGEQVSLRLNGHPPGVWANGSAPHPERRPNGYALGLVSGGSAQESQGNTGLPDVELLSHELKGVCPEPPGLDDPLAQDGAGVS
Description: For bimolecular fluorescence complementation (BiFC) assays: cells were transfected using cDNAs coding for two versions of the receptor. As described elsewhere [18, 27], two cDNAs were prepared: each encoding the receptor fused to one of the two halves of the super yellow fluorescent protein (sYFP). […] Each half of the fluorescent protein is unable, by itself, to emit fluorescence, which is only feasible after complementation of the two halves of the sYFP.
To address homodimer disruption, bimolecular fluorescence complementation assays were performed using HEK-293T cells transfected with equal amounts of cDNAs (0.75 µg cDNA each) for A2A-cYFP and A2A-nYFP fusion proteins (intramural production, see [17, 18, 26, 28]). […] Fluorescence was recorded in a Fluostar Optima fluorimeter (BMG Labtechnologies, Offenburg, Germany). […] Values of fluorescence obtained in the absence or presence of peptides are given as mean ± standard error of the mean (SEM) of 16 independent experiments in duplicates.

trypsin = test: Trypsin digestion followed by HPLC; assay type: in vitro ADME; details: trypsin (isolated protease), after 30 min, peptide:trypsin 100:1, peptide 1 µg/µL, 50 mM ammonium bicarbonate buffer pH 8.2, 37 °C, reverse-phase HPLC-MS read-out, assays in duplicate, read-out: Decrease in the area of the starting HPLC peak on trypsin treatment
Description: It was of particular interest to ascertain how the internal cyclization and D-amino acid modifications influenced the lifespan of the partially cyclic structures. To this end, peptides 1 and 2, both with a TM5 disruptor sequence fused to a linear or a cyclic CPP motif, respectively, were inspected by high-performance liquid chromatography (HPLC) upon trypsin treatment. Analysis confirmed the vulnerability of fully linear 1 (Figure 3), with a 90% decrease in the area of the starting peak after only 30 min (Figure 4), and the appearance of new peaks identified by mass spectrometry (MS) (Table 2).
A 1000 µg/1000 µL trypsin solution (Thermo Fisher Scientific, Cornellà de Llobregat, Spain) […]) was prepared by suspending the lyophilized enzyme in 50 mM ammonium bicarbonate buffer, pH 8.2. Peptides dissolved in the same buffer (1 µg/µL) were incubated with trypsin (peptide:trypsin ratio = 100:1) for 24 h at 37 °C. Samples were collected at various time points and digestion was stopped by addition of 20% (v/v) of 0.5% formic acid in H2O. Samples were stored at −20 °C until analyzed by reverse-phase HPLC-MS.

[2] = molecular target: T2, adenosine A2A receptor, fused to one half of super yellow fluorescent protein (A2A-cYFP or A2A-nYFP), BiFC … (UniProt P29274 1-412); test: split reporter (BiFC, NanoBiT); competition: HEK-293T cells expressing A2A-cYFP and A2A-nYFP treated with TM5 peptides 1 or 2 for 4 h before the complementation assay, in supplemented DMEM; dose-dependent loss of YFP fluorescence; details: one partner purified
T2 construct: source: HEK-293T, transfected, in living cells
T2 sequence (P29274 whole entry, the tested form may be a part): as the sequence (P29274 whole entry) above

## MNYMVYFNFFACVLVPLLLMLGVYLYGRKKRRQRRR-NH2 [Peptide 1]
[1]
  Effect on the control BiFC fluorescence (A2AR dimerization): affected the fluorescence of the control in a dose-dependent manner
trypsin
  metabolised at 0.5 h, 1 µg/µL: 90%

## MNYMVYFNFFACVLVPLLLMLGVYL[KrRrGrKkRrE]-amide (sidechain bridge or staple) [Peptide 2, Cyclic Tat-like TM5: A2AR TM5 fused to cyclic KrRrGrKkRrE motif, N-terminus acetylated]
[1]; HEK-293T cells transfected with A2A-cYFP and A2A-nYFP, 48 h post-transfection, supplemented DMEM, Figure 2B, mean +/- SD, n = 12 in duplicates, read-out: IC50 for reduction of BiFC (sYFP complementation) fluorescence of the A2AR homodimer
  IC50: 350 nM
[1]
  Effect on the control BiFC fluorescence (A2AR dimerization): affected the fluorescence of the control in a dose-dependent manner

B1: Peptide 2, cyclic Tat-like TM5 (peptide)
peptide: MNYMVYFNFFACVLVPLLLMLGVYLKRRRGRKKRRE
modifications: also: cyclic (mode of cyclisation not given here)
notes: also called TM5-cyclic Tat-like; cyclic version 2; source: synthetic peptide (Fmoc solid-phase synthesis, on-resin cyclization, purified by preparative HPLC)
[2]
  IC50: 350 nM

B2: Peptide 1, linear Tat-based TM5 (peptide)
peptide: MNYMVYFNFFACVLVPLLLMLGVYLYGRKKRRQRRR-NH2
notes: TM5 helical domain of the adenosine A2A receptor (A2AR); also called linear TM5-Tat; linear peptide 1; source: synthetic peptide (Fmoc solid-phase synthesis, purified by preparative HPLC)
[2]
  IC50: 520 nM

— paper PMC6801510, “A2A Receptor Homodimer-Disrupting Sequence Efficiently Delivered by a Protease-Resistant, Cyclic CPP Vector” (International Journal of Molecular Sciences, 2019)
